Assay results published in PubChem BioAssay (NCI).
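The compound was tested at five concentrations on cells cultured in 96-well plates, with a 48-hour exposure period. GI50: concentration for 50% inhibition of growth. Definition used: TGI = concentration required for complete inhibition of growth.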

What was measured:
Experiment in all cases: growth of human tumour cells (NCI), 48 h
[1] = tested on: SK-OV-3 ovarian
[2] = tested on: MALME-3M melanoma
[3] = tested on: SNB-19 CNS
[4] = tested on: 786-0 renal
[5] = tested on: PC-3 prostate
[6] = tested on: LOX IMVI melanoma
[7] = tested on: U251 CNS
[8] = tested on: NCI-H522 lung
[9] = tested on: NCI-H226 lung
[10] = tested on: BT-549 breast
[11] = tested on: MCF7 breast
[12] = tested on: A498 renal
[13] = tested on: NCI/ADR-RES ovarian
[14] = tested on: TK-10 renal
[15] = tested on: HT29 colon
[16] = tested on: SK-MEL-5 melanoma
[17] = tested on: UACC-62 melanoma
[18] = tested on: HCT-116 colon
[19] = tested on: NCI-H23 lung
[20] = tested on: SW-620 colon
[21] = tested on: SR leukemia
[22] = tested on: UO-31 renal
[23] = tested on: K-562 leukemia
[24] = tested on: KM12 colon
[25] = tested on: HOP-62 NSCLC
[26] = tested on: SF-539 CNS
[27] = tested on: T-47D breast
[28] = tested on: DU-145 prostate

SMILES: COC(=O)c1cc(-c2ccc(OC)cc2)[nH]c1N/N=C/c1c(Cl)cccc1Cl
- TGI [1]: 2190 nM
- GI50 [2]: 316 nM
- GI50 [3]: 358 nM
- TGI [3]: 11.5 µM
- GI50 [4]: 331 nM
- TGI [4]: 4.79 µM
- GI50 [5]: 261 nM
- TGI [5]: 3.78 µM
- GI50 [6]: 146 nM
- TGI [6]: 5.42 µM
- GI50 [7]: 292 nM
- TGI [7]: 1820 nM
- GI50 [8]: 87.7 nM
- TGI [8]: 491 nM
- GI50 [9]: 574 nM
- TGI [9]: 28.1 µM
- GI50 [10]: 177 nM
- TGI [10]: 2020 nM
- GI50 [11]: 107 nM
- TGI [11]: 887 nM
- GI50 [12]: 185 nM
- TGI [12]: 3.43 µM
- GI50 [13]: 160 nM
- TGI [13]: 5.11 µM
- GI50 [14]: 568 nM
- TGI [14]: 13.8 µM
- GI50 [15]: 255 nM
- TGI [15]: 1260 nM
- GI50 [16]: 198 nM
- TGI [16]: 3.5 µM
- GI50 [17]: 205 nM
- TGI [17]: 16.8 µM
- GI50 [18]: 354 nM
- TGI [18]: 2140 nM
- GI50 [19]: 412 nM
- TGI [19]: 14 µM
- GI50 [20]: 260 nM
- TGI [20]: 97.5 µM
- GI50 [21]: 90.9 nM
- TGI [21]: 1180 nM
- GI50 [22]: 287 nM
- TGI [22]: 2550 nM
- GI50 [23]: 144 nM
- TGI [23]: 6.65 µM
- GI50 [24]: 141 nM
- TGI [24]: 6.75 µM
- GI50 [25]: 275 nM
- TGI [25]: 4.71 µM
- GI50 [26]: 172 nM
- TGI [26]: 553 nM
- GI50 [27]: 505 nM
- TGI [27]: > 31.8 µM
- GI50 [28]: 229 nM
- TGI [28]: 831 nM
